Biological target: (recombinant) catalytic domain of human Bub1 (amino acids 704-1085) (Homo sapiens (Human), UniProt O43683)
Test: Bub1 kinase assay (TR-FRET)
Type: biochemical
Conditions: ATP 10 μM final, peptide substrate 1 μM final, 60 min at 22° C., read-out: Biological Assay: Bub1 kinase assay median IC50
Outline: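 Readout was TR-FRET between a Eu-labeled antibody complex recognizing phosphoserine and streptavidin-XL665 on the biotinylated peptide, after EDTA stop and 1 h at 22° C. The kinase reaction ran for 60 min at 22° C. Values are means or medians of repeat tests, from 4-parameter fits normalized to enzyme-free and inhibitor-free controls.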

(recombinant) catalytic domain of human Bub1 (amino acids 704-1085), sequence (O43683 704-1085): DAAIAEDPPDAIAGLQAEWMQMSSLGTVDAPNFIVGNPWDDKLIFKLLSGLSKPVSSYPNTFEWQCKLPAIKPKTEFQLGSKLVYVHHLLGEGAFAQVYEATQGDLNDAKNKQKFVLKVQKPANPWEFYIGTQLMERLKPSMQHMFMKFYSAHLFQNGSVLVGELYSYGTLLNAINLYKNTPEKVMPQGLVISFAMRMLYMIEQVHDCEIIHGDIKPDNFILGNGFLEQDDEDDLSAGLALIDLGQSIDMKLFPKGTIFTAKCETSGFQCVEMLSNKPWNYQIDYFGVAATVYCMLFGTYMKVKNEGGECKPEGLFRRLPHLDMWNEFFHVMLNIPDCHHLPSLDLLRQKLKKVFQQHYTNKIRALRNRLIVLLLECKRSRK

| Compound | IC50 |
| --- | --- |
| CC(C)Oc1cnccc1-c1[nH]c2c(c1Nc1ccccc1)C(=O)CC(C)(C)C2 [Example 406, 6,6-dimethyl-3-(phenylamino)-2-[3-(propan-2-yloxy)pyridin-4-yl]-1,5,6,7-tetrahydro-4H-indol-4-one] | 53.7 nM |
| O=C(NCC(F)F)Nc1cc(-c2[nH]c3c(c2Nc2ccccc2)C(=O)CCC3)ccn1 [Example 387, 1-(2,2-difluoroethyl)-3-{4-[4-oxo-3-(phenylamino)-4,5,6,7-tetrahydro-1H-indol-2-yl]pyridin-2-yl}urea] | 63.5 nM |
| CNC(=S)Nc1cc(-c2[nH]c3c(c2Nc2ccccc2)C(=O)CCC3)ccn1 [Example 392, 1-methyl-3-{4-[4-oxo-3-(phenylamino)-4,5,6,7-tetrahydro-1H-indol-2-yl]pyridin-2-yl}thiourea] | 87.5 nM |
| CC1(C)CC(=O)c2c([nH]c(-c3ccncc3)c2Nc2ccc(F)c(C#N)c2)C1 [Example 147, 5-{[6,6-dimethyl-4-oxo-2-(pyridin-4-yl)-4,5,6,7-tetrahydro-1H-indol-3-yl]amino}-2-fluorobenzonitrile] | 258 nM |
| CC1(C)CC(=O)c2c([nH]c(-c3ccncc3)c2Nc2ccc(F)c(F)c2)C1 [Example 21, 3-[(3,4-difluorophenyl)amino]-6,6-dimethyl-2-(pyridin-4-yl)-1,5,6,7-tetrahydro-4H-indol-4-one] | 13.2 nM |
| CC1(C)CC(=O)c2c([nH]c(-c3ccncc3Br)c2Nc2ccccc2)C1 [Example 199, 2-(3-bromopyridin-4-yl)-6,6-dimethyl-3-(phenylamino)-1,5,6,7-tetrahydro-4H-indol-4-one] | 12 nM |
| COc1ccc(Nc2c(-c3ccncc3)[nH]c3c2C(=O)CC(C)(C)C3)cc1 [Example 59, 3-[(4-methoxyphenyl)amino]-6,6-dimethyl-2-(pyridin-4-yl)-1,5,6,7-tetrahydro-4H-indol-4-one] | 422 nM |
| CC1(C)CC(=O)c2c([nH]c(-c3ccncc3)c2Nc2cc(Cl)cc(Cl)c2)C1 [Example 77, 3-[(3,5-dichlorophenyl)amino]-6,6-dimethyl-2-(pyridin-4-yl)-1,5,6,7-tetrahydro-4H-indol-4-one] | 1550 nM |
| CC1(C)CC(=O)c2c([nH]c(-c3ccncc3)c2Nc2cccc(C3OCCO3)c2)C1 [Example 119, 3-{[3-(1,3-dioxolan-2-yl)phenyl]amino}-6,6-dimethyl-2-(pyridin-4-yl)-1,5,6,7-tetrahydro-4H-indol-4-one] | 2340 nM |
| O=C1CCC(O)c2[nH]c(-c3ccncc3)c(Nc3ccccc3)c21 (stereo not shown) [Example 446, 7-hydroxy-3-(phenylamino)-2-(pyridin-4-yl)-1,5,6,7-tetrahydro-4H-indol-4-one] | 40.1 nM |
| CC1(C)CC(=O)c2c([nH]c(-c3ccncc3)c2Nc2ccccc2Oc2ccccc2)C1 [Example 159, 6,6-dimethyl-3-[(2-phenoxyphenyl)amino]-2-(pyridin-4-yl)-1,5,6,7-tetrahydro-4H-indol-4-one] | 1060 nM |
| CC(=O)Nc1cc(-c2[nH]c3c(c2Nc2ccccc2)C(=O)CC(C(C)C)C3)ccn1 (stereo not shown) [Example 317, N-{4-[4-oxo-3-(phenylamino)-6-(propan-2-yl)-4,5,6,7-tetrahydro-1H-indol-2-yl]pyridin-2-yl}acetamide] | 10.9 nM |
| Nc1cc(-c2[nH]c3c(c2Nc2ccc(F)c(F)c2)C(=O)CCC3)ccn1 [Example 212, 2-(2-aminopyridin-4-yl)-3-[(3,4-difluorophenyl)amino]-1,5,6,7-tetrahydro-4H-indol-4-one] | 220 nM |
| CC1(C)CC(=O)c2c([nH]c(-c3ccnc(NC(=O)[C@H]4C[C@H]4F)c3)c2Nc2ccccc2)C1 [Example 259] | 10.1 nM |
| O=C1CCCc2[nH]c(-c3ccnc(NC[C@H](O)CO)c3)c(Nc3ccccc3)c21 [Example 371, 2 2-(2-{[(2S)-2,3-dihydroxypropyl]amino}pyridin-4-yl)-3-(phenylamino)-1,5,6,7-tetrahydro-4H-indol-4-one] | 1010 nM |
| CC1(C)CC(=O)c2c([nH]c(-c3ccnc(OCc4ccccc4)c3)c2Nc2ccccc2)C1 [Example 468, 2-[2-(benzyloxy)pyridin-4-yl]-6,6-dimethyl-3-(phenylamino)-1,5,6,7-tetrahydro-4H-indol-4-one] | > 20000 nM |
| CC(C)CC1CC(=O)c2c([nH]c(-c3ccncc3)c2Nc2ccccc2)C1 (stereo not shown) [Example 29, 6-(2-methylpropyl)-3-(phenylamino)-2-(pyridin-4-yl)-1,5,6,7-tetrahydro-4H-indol-4-one] | 6.17 nM |
| CC1(C)CC(=O)c2c([nH]c(-c3ccncc3)c2Nc2cncc3ccccc23)C1 [Example 64, 3-(isoquinolin-4-ylamino)-6,6-dimethyl-2-(pyridin-4-yl)-1,5,6,7-tetrahydro-4H-indol-4-one] | 1820 nM |
| Cn1cc(Nc2cc(-c3[nH]c4c(c3Nc3ccccc3)C(=O)CC(C)(C)C4)ccn2)cn1 [Example 205, 6,6-dimethyl-2-{2-[(1-methyl-1H-pyrazol-4-yl)amino]pyridin-4-yl}-3-(phenylamino)-1,5,6,7-tetrahydro-4H-indol-4-one] | 22.9 nM |
| CC1(C)CC(=O)c2c([nH]c(-c3ccncc3)c2Nc2cccc(OC(F)(F)F)c2)C1 [Example 107, 6,6-dimethyl-2-(pyridin-4-yl)-3-{[3-(trifluoromethoxy)phenyl]amino}-1,5,6,7-tetrahydro-4H-indol-4-one] | 164 nM |
| CC1(C)CC(=O)c2c([nH]c(-c3cc(N)ncn3)c2Nc2ccccc2)C1 [Example 224, 2-(6-aminopyrimidin-4-yl)-6,6-dimethyl-3-(phenylamino)-1,5,6,7-tetrahydro-4H-indol-4-one] | 248 nM |
| CS(=O)(=O)CC(=O)Nc1cc(-c2[nH]c3c(c2Nc2ccccc2)C(=O)CCC3)ccn1 [Example 248, 2-(methylsulfonyl)-N-{4-[4-oxo-3-(phenylamino)-4,5,6,7-tetrahydro-1H-indol-2-yl]pyridin-2-yl}acetamide] | 28.2 nM |
| COCC(=O)Nc1cc(-c2[nH]c3c(c2Nc2ccccc2)C(=O)CCC3)ccn1 [Example 325, 2-methoxy-N-{4-[4-oxo-3-(phenylamino)-4,5,6,7-tetrahydro-1H-indol-2-yl]pyridin-2-yl}acetamide] | 19.8 nM |
| CC(=O)Nc1cc(-c2[nH]c3c(c2Nc2ccc(F)c(F)c2)C(=O)CCC3)ccn1 [Example 315, N-(4-{3-[(3,4-difluorophenyl)amino]-4-oxo-4,5,6,7-tetrahydro-1H-indol-2-yl}pyridin-2-yl)acetamide] | 101 nM |
| CCNC(=O)Nc1cc(-c2[nH]c3c(c2Nc2ccccc2)C(=O)CCC3)ccn1 [Example 377, 1-ethyl-3-{4-[4-oxo-3-(phenylamino)-4,5,6,7-tetrahydro-1H-indol-2-yl]pyridin-2-yl}urea] | 30.1 nM |

Second part, the compound after the results:

| IC50 | Compound |
| --- | --- |
| 2980 nM | CC(C)C(=O)Nc1cccc(Nc2c(-c3ccncc3)[nH]c3c2C(=O)CC(C)(C)C3)c1 [Example 97, N-(3-{[6,6-dimethyl-4-oxo-2-(pyridin-4-yl)-4,5,6,7-tetrahydro-1H-indol-3-yl]amino}phenyl)-2-methylpropanamide] |
| 25.3 nM | CC1(C)CC(=O)c2c([nH]c(-c3ccncc3)c2Nc2cnccc2CO)C1 [Example 510, 3-{[4-(hydroxymethyl)pyridin-3-yl]amino}-6,6-dimethyl-2-(pyridin-4-yl)-1,5,6,7-tetrahydro-4H-indol-4-one] |
| 58.1 nM | CC1(C)CC(=O)c2c([nH]c(-c3ccncc3)c2Nc2ccc3ccsc3c2)C1 [Example 130, 3-(1-benzothiophen-6-ylamino)-6,6-dimethyl-2-(pyridin-4-yl)-1,5,6,7-tetrahydro-4H-indol-4-one] |
| 1050 nM | O=C1CCCc2[nH]c(-c3ccnc(NC(=S)NC4CCCC4)c3)c(Nc3ccccc3)c21 [Example 397, 1-cyclopentyl-3-{4-[4-oxo-3-(phenylamino)-4,5,6,7-tetrahydro-1H-indol-2-yl]pyridin-2-yl}thiourea] |
| 9.88 nM | Cc1cc(OCC(=O)Nc2cc(-c3[nH]c4c(c3Nc3ccccc3)C(=O)CCC4)ccn2)no1 [Example 346, 2-[(5-methyl-1,2-oxazol-3-yl)oxy]-N-{4-[4-oxo-3-(phenylamino)-4,5,6,7-tetrahydro-1H-indol-2-yl]pyridin-2-yl}acetamide] |
| 608 nM | COC(C)(C)C(=O)Nc1cc(-c2[nH]c3c(c2Nc2ccccc2)C(=O)CCC3)ccn1 [Example 326, 2-methoxy-2-methyl-N-{4-[4-oxo-3-(phenylamino)-4,5,6,7-tetrahydro-1H-indol-2-yl]pyridin-2-yl}propanamide] |
| 73.5 nM | CC(C)c1cccc(Nc2c(-c3ccncc3)[nH]c3c2C(=O)CC(C)(C)C3)c1 [Example 85, 6,6-dimethyl-3-{[3-(propan-2-yl)phenyl]amino}-2-(pyridin-4-yl)-1,5,6,7-tetrahydro-4H-indol-4-one] |
| 26.8 nM | CC1(C)CC(=O)c2c([nH]c(-c3ccncc3)c2Nc2cccc(-c3ccccc3)n2)C1 [Example 423, 6,6-dimethyl-3-[(6-phenylpyridin-2-yl)amino]-2-(pyridin-4-yl)-1,5,6,7-tetrahydro-4H-indol-4-one] |
| 6.25 nM | CC1(C)CC(=O)c2c([nH]c(-c3ccncc3)c2Nc2ccccc2)C1 [Example 1, 6,6-dimethyl-3-(phenylamino)-2-(pyridin-4-yl)-1,5,6,7-tetrahydro-4H-indol-4-one] |
| 32.7 nM | CCn1c2c(c(Nc3ccccc3)c1-c1ccncc1)C(=O)CC(C)(C)C2 [Example 181, 1-ethyl-6,6-dimethyl-3-(phenylamino)-2-(pyridin-4-yl)-1,5,6,7-tetrahydro-4H-indol-4-one] |
| 101 nM | O=C(COc1ccccn1)Nc1cc(-c2[nH]c3c(c2Nc2ccccc2)C(=O)CCC3)ccn1 [Example 347, N-{4-[4-oxo-3-(phenylamino)-4,5,6,7-tetrahydro-1H-indol-2-yl]pyridin-2-yl}-2-(pyridin-2-yloxy)acetamide] |
| 604 nM | O=C1CCCc2[nH]c(-c3ccnc(NCCC(F)(F)F)c3)c(Nc3ccccc3)c21 [Example 365, 3-(phenylamino)-2-{2-[(3,3,3-trifluoropropyl)amino]pyridin-4-yl}-1,5,6,7-tetrahydro-4H-indol-4-one] |
